Reference: patent US8835392B2, “Mimetic peptides and the use thereof in the form of 20S, 26S and immunoproteasome inhibitors” (Technische Universität, priority 2005, dated 2014)
Where a SMILES comes first, the peptide text is derived from it. The star is where a group is joined. Cbz = O=C(OCc1ccccc1)*; OtBu = CC(C)(C)O*

Tests used:
[1] = test system: T1, 20S proteasome of S. cerevisiae; test: Co-crystallisation with 20S yeast-proteasome
T1 construct: crystals of the 20S proteasome of S. cerevisiae were generated in hanging drops
Procedure: For this, crystals of the 20S proteasome of S. cerevisiae were generated in hanging drops at 24° C., as described earlier (6), and incubated for 60 min with compound 15. The protein concentration as used for the crystallization was 40 mg/ml in Tris-HCl (10 mM, pH 7.5), and EDTA (1 mM). The drops contained 3 μl protein and 2 μl reservoir-solution, containing 30 mM magnesium acetate, 100 mM morpholino ethanesulfonic acid (pH 7.2) and 10% MPD.
The space group belonged to P21 with cellular dimensions of a=135.8 Å, b=300.1 ÅA, c=144.4 Å, and (β=113.1°. Data for 2.8 Å were collected using synchrotron-radiation with λ=1.05 Å on the BW6-beamline of the DESY, Hamburg, Germany. Crystals were soaked in a cryo-protecting buffer (30% MPD, 20 mM magnesium acetate, 100 mM morpholino ethanesulfonic acid pH 6.9), and frozen and in a stream of liquid nitrogen gas at 90K (Oxford Cryo Systems). X-ray-intensities were evaluated using the MOSFILM program-package (Version 6.1), and data reduction was performed with CCP4 (24). The anisotropy of the diffraction was corrected by a general anisotropic temperature factor through comparison of the observed and calculated structure-amplitudes using the program X-PLOR (25). An overall number of 2383416 reflexions that led to 248616 unique reflexions (96.9% completeness), was collected. […]

[2] = test system: Fibroblasts; test: Viability of fibroblasts (control); format: cell-based; conditions: Fibroblast, identical conditions (72 h), read-out: concentration for 50% reduction of the viability
[3] = target: T2, 20S proteasome β5 chymotrypsin-like activity (GLL-MCA) (Homo sapiens, UniProt P20618+P28074); test: Protease assay, chymotrypsin-like activity of isolated 20S proteasomes (GLL substrate); format: biochemical; conditions: isolated 20S proteasome; GLL-MCA 50 μM; 15 min pre-incubation; read-out: IC50 β5 Chym.-like (L)
T2 construct: Proteasomes were isolated from red blood cells; from tissue; host or cells: red blood cells
Procedure: (§1) Proteasomes were isolated from red blood cells. Cells were lysed with DTT (1 mM), and the stroma-free supernatant was loaded on DEAE-sepharose (Toyopearls). Proteasome was eluted with an NaCl-gradient in TEAD (20 mM TrisCl pH 7.4, 1 mM EDTA, 1 mM azide, 1 mM DTT) of 100 to 300 mM NaCl. Proteasome was concentrated using ammonium sulfate-precipitation (between 40 and 70% saturation) and was separated in a 10-40% sucrose-gradient through centrifugation at 40.000 rpm for 16 hours (SW40; L7, Beckman & Coulter). Finally, the proteasomes were purified on a MonoQ-column and eluted with an NaCl-gradient at about 280 mM NaCl. The fractions containing purified proteasome were dialysed against 50 mM NaCl in TEAD and stored on ice. The purity was determined using SDS-PAGE.
(§2) Suc-LLVY-AMC, Z-VGR-AMC and LLE-AMC (BACHEM, Calbiochem) was used, in order to determine the chymotrypsin-like, trypsin-like or caspase-like (post-acidic)-activities of the proteasome. Substrate was incubated with proteasome at 37° C. in assay-buffer (20 mM Tris/Cl, pH 7.2, 1 mM EDTA, 1 mM DTT) for one hour. 100 ng proteasome was pre-incubated with 0.01-10 μM of the inhibitor for […]. The reaction was started by the addition of substrate (50 μM). The AMC as released was detected using fluorescence emission at 460 nm (excitation at 390 nm) using a TECAN-fluorimeter. The activity was calculated in fluorescence-units. The inhibition is depicted by IC50-values.
(§3) The IC50-values form the inhibition of the proteasome were calculated at increasing concentrations of the inhibitor. The samples were pre-incubated for 15 min in ice. The assay was started through the addition of 50 μM of one of the following fluorogenic peptide substrates:
(§4) The release of MCA was determined at 460 nm emission (excitation 390 nm). The IC50-values as calculated for MG132 served as controls.

[4] = target: T3, 20S proteasome β2 trypsin-like activity (VGR-MCA) (Homo sapiens, UniProt P49720+Q99436); test: Protease assay, trypsin-like activity of isolated 20S proteasomes; format: biochemical; conditions: isolated 20S proteasome; VGR-MCA 50 μM; 15 min pre-incubation; read-out: IC50 β2 Trypsin-like (R)
T3 construct: Proteasomes were isolated from red blood cells; from tissue; host or cells: red blood cells
Procedure: as §1, §2
The effects thereof were compared with the one of the commonly used proteasomal inhibitor 3 (MG132). The chymotrypsin-like (Suc-LLVY-AMC), the trypsin-like (Bz-VGR-AMC), and the caspase-like (Z-LLE-AMC)-activities of 20S proteasomes were determined following incubation for one hour at 37° C.
as §3, §4

[5] = test system: Human melanoma cells (MeWo); test: Cell cycle arrest in MeWo cells, propidium iodide FACS; format: cell-based; conditions: 24 hours
Procedure: A, Human melanoma cells (MeWo) were treated with increasing concentrations of the compounds 15 or 3 (MG132) for 72 hours. The viability of the cells after the treatment with compound 15 (-♦-) and with MG132 (-□-) was detected by a crystal-violet-staining. B and C, MeWo cells were co-cultivated with the compounds 15 and 3 (MG132) for 24 hours. The cells were subsequently fixed in 70% ethanol, and treated with RNAse A. The DNA was stained with propidium iodide (5 μg/ml), and analysed by means of FACS (FACS Calibur flow cytometer; Beckton Dickinson). The statistical significance was detected by the chi-square-test. The relative distribution of the cells that were present in the G1-(black), in the S-(white) or in the G2 phase (hatched) of the cellular cycle is shown for both compounds as examined (15 in B and MG132 in C).
Human melanoma cells (MeWo) were with the compounds 15 and 3 (MG132) for 24 hours co-cultivated. The cells were washed with PBS, in 70% ethanol fixed and subsequently treated with RNAse A. The DNA was stained with propidium iodide (5 μg/ml) and analysed by means of flow-cytometry (FACS Calibur flow cytometer; Beckton Dickinson). The relative dispersion of the cells that were present in different phases of the cell cycle, could thus be detected. […] The statistical significance was detected by the Chi-square test.

binding mode to Thr1Oγ in crystal structure ([1]; 2.8 Å): covalent hemiacetal bond | specificity for the subunits in crystal structure ([1]; high concentrations of the inhibitors (10 mM)): no specificity for the subunits | IC50 [3]: 31 nM | IC50 [4]: 155 nM
SMILES: CC(C)CC(C=O)NC(=O)C(CC(=O)OC(C)(C)C)NC(=O)C(CC(C)C)NC(=O)OCc1ccccc1 (stereo not drawn) [Compound 15, Z-Leu-Asp(O^tBu)Leu-CHO] (Cbz-Leu-Asp(OtBu)-Leu-aldehyde; configuration not given here)
IC50 [2]: 500 to 1000 nM | concentration giving arrest of the cell cycle in the G2 phase [5]: 50 nM
